Source: patent US20170266222A1, “MODULATION OF CHRFAM7A FOR ANTI-INFLAMMATORY THERAPIES” (THE REGENTS OF THE UNIVERSITY OF CALIFORNIA, priority 2016, published 2017)
“Also recorded” adds a separate entry of the source.

How the values were obtained:
CHRNA7 gene expression = experiment: qPCR of CHRNA7 gene expression in gut epithelial cells treated with LPS; assay type: cell-based, human; settings: 3 hours
Description: (§1) All epithelial cancer cell lines were originally purchased from American Type Culture Collection and propagated as instructed. Normal human small intestine epithelial cells (FHs-Int-74) were also obtained from the ATCC (CCL-241). Cells were seeded at 2×10^6 in 6-well tissue culture plates the day before the experiment. As indicated, cells were either harvested directly for total RNA preparation, processed for transient transfection, or treated with LPS (CAT# L4391, Sigma) at 100 ng/ml for 3 hours. At the end of the incubation with LPS, cells were harvested and used for analyses of gene expression.
(§2) Total RNA was prepared using RNeasy kit (Qiagen) and was quantitated using Nanodrop Spectrophotometer. One μg total RNA was reverse transcribed using iScript cDNA synthesis kit (BioRad) in a 20 μl reaction. Of the 20 μl cDNA, one μl was used for RT-PCR or real-time qPCR.
(§3) RT-PCR was performed in a 50 μl reaction containing 45 μl PCR blue mix (Invitrogen), 1 μl of each primer (10 μM), 1 μl cDNA, and 2 μl water. The cycling conditions were: 94° C. for 4 minutes followed by 35 cycles of 94° C. for 30 seconds, 60° C. for 30 seconds, and 72° C. for 60 seconds and a final extension at 72° C. for 5 minutes. Ten μl of each PCR products were resolved on a 2% agarose gel and images were acquired using Alpha Innotech imaging system. Real-time qPCR was performed in a 25 μl reaction containing 12.5 μl 2×CYBR Green PCR Master Mix (BioRad), 0.5 μl of each primer (10 μM), 1 μl cDNA, and 10.5 μl water. PCR cycling conditions were: 95° C. for 10 minutes followed by 45 cycles of 94° C. for 25 seconds, 60° C. for 25 seconds, and 72° C. for 40 seconds. Primer efficiency for CHRFAM7A and CHRNA7 were 100% and 94% respectively. Expression of CHRNA7 and CHRFAM7A was normalized to that of GAPDH using ΔΔCt method.
Primers for CHRNA7 were designed to hybridize with both variant 1 and 2 transcripts of CHRNA7 by selecting sequences present in CHRNA7 but absent from CHRFAM7A for amplification: Sense, 5′-acATGcgctgctcgccggga-3′ (SEQ ID NO:13), Anti-sense, 5′-[…]-3′ (SEQ ID NO:14).

[1] = tested on: CHRFAM7A/CHRNA7 gene expression; experiment: qRT-PCR ratio of CHRFAM7A to CHRNA7 in leukocyte cell lines treated with LPS; assay type: cell-based, human; settings: 100 ng/ml LPS, 3 hours
From the text: All cell lines were originally purchased from ATCC and/or acquired through the UCSD Department of Surgery, Division of Trauma, Burns and Acute Care Surgery Cell Repository. Thawed cells were washed in RPMI culture media containing 10% FCS, the pellet reconstituted in culture media and cells plated into six-well tissue culture plates. All cells were washed 48 hrs later and allowed to grow to 90% confluence and propagated with trypsin digestion as needed. For transduction studies, cells were seeded at 2×10^6 in 6-well tissue culture plates the day before the experiment. As indicated in each experiment, cells were harvested directly from the culture dishes for total RNA preparation, processed for stable or transient transfection, or treated with 100 ng/ml LPS (CAT# L4391, Sigma) for 3 hours. At the end of incubations, cells were harvested, total RNA isolated and the cDNA generated (see below) used for analyses of gene expression.
Total RNA was prepared from cell lysates using the RNeasy kit (Qiagen, San Diego Calif.) and was quantified using a Nanodrop Spectrophotometer. […]
RT-PCR and Quantitative RT-PCR for CHRFAM7A and CHRNA7: RT-PCR was performed in a 50 μl reaction containing 45 μl PCR blue mix (Invitrogen), 1 μl of each primer (10 μM), 1 μl cDNA, and 2 μl water. […]

CHRNA7 and CHRFAM7A = settings: undifferentiated human THP1 cells and human macrophages; cited from earlier work
CHRFAM7A promoter [2] = experiment: CHRFAM7A promoter luciferase reporter in THP1 cells; assay type: cell-based, human; settings: THP1 cells pre-treated with 100 ng/ml LPS
From the text: Analyses of the CHRFAM7A promoter: The putative CHRFAM7A promoter region spanning from −2363 to +22 relative to the open reading frame ATG start codon was amplified by PCR of genomic DNA isolated from HEK293 cells. The longest fragment was cloned into pGL4 promoter-less luciferase reporter plasmid (Promega) according to the manufacturers specifications and the resulting plasmid, pGL4-CHRFAM7A (˜2400) was confirmed by DNA sequencing and thereafter referred to f2400 to reflect the size of the fragment. […]
The fragments generated were cloned into the pGL4 vector to create plasmids f1800, f1000, and f500, which were each sequenced to confirm their identity. These plasmids were then transiently transfected into THP1 cells as described below, and luciferase activity was analyzed 30 hours after transfection following the manufacturer's instructions (Promega). […]
THP1 cells, cultured in RPMI1640 supplemented with 1× Glutamax and 1× Penicillin/Streptomycin, were seeded at 5×10^5 per well in a 24-well plate two hours before transfection. […] The lysate was spun down and 10 μl of the supernatant was used for luciferase assay on POLARstar Omega plate reader (BMG LABTECH). Luciferase activity normalized to protein concentration was expressed as fold changes over that of pGL4 transfected cells.

CHRFAM7A promoter [3] = experiment: CHRFAM7A promoter luciferase reporter in FHs cells; assay type: cell-based, human; settings: LPS 100 ng/ml
From the text: The putative CHRFAM7A promoter region spanning from −2363 to +22 relative to the open reading frame ATG start codon was amplified by PCR of genomic DNA isolated from HEK293 cells. The longest fragment was cloned into pGL4 promoter-less luciferase reporter plasmid (Promega) according to the manufacturers specifications and the resulting plasmid, pGL4-CHRFAM7A (2400) was confirmed by DNA sequencing and thereafter referred to F2400 to reflect the size of the fragment. […]
The fragments generated were cloned into the pGL4 vector to create plasmids f1800, f1000, and f500, which were each sequenced to confirm their identity. These plasmids were then transiently transfected into FHs cells as described below, and luciferase activity was analyzed 30 hours after transfection following the manufacturer's instructions (Promega). […]
Transfections of FHs cells for luciferase activity: The normal human small intestine FHs cells were cultured in 10% DMEM/F12 supplemented with 1× Glutamax, 1× Penicillin/Streptomyxin, and 30 ng/ml EGF and seeded at 1×10^5 per well in a 12-well plate the day before transfection. […] The lysate was spun down and 10 μl of the supernatant was used for luciferase assay on POLARstar Omega plate reader (BMG LABTECH).

CHRFAM7A gene expression = experiment: qPCR of CHRFAM7A gene expression in gut epithelial cells treated with LPS; assay type: cell-based, human
Description: as §1, §2, §3
Primers for CHRFAM7A were designed to hybridize with the variant 1 transcript by selecting sequences that bridge CHRFAM7A and CHRNA7 and therefore unique to CHRFAM7A and not available in FAM7A or CHRNA7A alone: Sense: 5′-ATAGCTGCAAACTGCGATA-3′ (SEQ ID NO:11), Anti-sense: 5′-[…]-3′(SEQ ID NO:12).

**Q.** Which results are given for lipopolysaccharide [LPS]?
**A.** increase in CHRNA7 gene expression (CHRNA7 gene expression; CaCo2, KM12, KM20, SW, Colo205 cells, 100 ng LPS): less than two-fold; decrease in CHRNA7 gene expression (CHRNA7 gene expression; FHs and T84 cells, 100 ng LPS): 30%; effect on CHRNA7 gene expression (CHRNA7 gene expression; epithelial cells, 100 ng/ml LPS): little to no effect; also recorded: little effect; ratio of CHRFAM7A to CHRNA7 gene expression [1]: unaffected; also recorded: both genes respond equally; effect on CHRNA7 and CHRFAM7A (CHRNA7 and CHRFAM7A): inhibits; luciferase signal of CHRFAM7A 5'UTR fragments (CHRFAM7A promoter [2]): decreased; also recorded: inhibited; luciferase activity profile of CHRFAM7A UTR fragments (CHRFAM7A promoter [3]): very similar profile; CHRFAM7A gene expression by q-PCR (CHRFAM7A gene expression; FHs cells, 100 ng/ml LPS, 3 hr): increases; relative expression of CHRFAM7A over CHRNA7 (CHRFAM7A gene expression; HCT116T, KM20L and T84 cells, LPS): unchanged; change of CHRFAM7A gene expression (CHRFAM7A gene expression; KM12 and T84 cells, 100 ng/ml LPS): decreased; increase of CHRFAM7A gene expression (CHRFAM7A gene expression; epithelial cells, 100 ng/ml LPS, 3 hour treatment): ~1000 fold; increase of relative expression of CHRFAM7A over CHRNA7 (CHRFAM7A gene expression; gut epithelial cells, depending on the cell line, LPS): 2-200 fold
